Experimental data as given in patent publication EP0509752A2, “Ophthalmic compositions comprising combinations of a carbonic anhydrase inhibitor and a beta-adrenergic antagonist” (MERCK & CO. INC., priority 1991, dated 1992).

Tested on: Patients with either ocular hypertension or primary open angle glaucoma
Experiment: Study of Compound I in combination with timolol: 12 hour diurnal IOP curve (Goldmann applanation tonometer)
Assay type: in vivo
Conditions: 2% Compound I, 1 drop to each eye every 12 hours for seven days, ten minutes after timolol 0.5% bid, worse eye analysis, preliminary IOP data
Source text: Study of (S,S)-(-)-5,6-dihydro-4-ethylamino-6-methyl-4H-thieno[2,3b]thiopyran-2-sulfonamide-7,7-dioxide (I) in combination with Timolol
Patients aged 40 or over, with either ocular hypertension or primary open angle glaucoma with an intraocular pressure (IOP) in one or both eyes of 22 mmHg or more at one time point each day while receiving timolol 0.5% twice a day (bid) alone were admitted to the study. Patients had been on timolol 0.5% bid, either alone or in combination for at least three weeks prior to study entry and had been on timolol 0.5% bid as their sole glaucoma therapy for at least two weeks prior to study admission.
Secondary glaucoma was an exclusion as was a history of glaucoma surgery or laser trabeculoplasty/gonioplasty. Patients for whom timolol was contraindicated by the datasheet were excluded and also excluded were those on a concurrent β-blocker, carbonic anhydrase inhibitor, or clonidine. […]
• 1. […] Patients were admitted for a 12 hour diurnal curve (i.e., IOP recorded at 08.00, 09.00, 10.00, 12.00, 14.00, 16.00, 18.00, 20.00 hours approximately, the 08.00 recording was immediately prior to instillation of the drops). All pressures were measured by the same observer using the same Goldmann applanation tonometer. • 3. […] On Day 2, the IOP of each patient was measured at 8 am and 9 am, and a 12 hour diurnal curve was recorded on Day 8. preliminary IOP data follow : […]

## CCN[C@H]1C[C@H](C)S(=O)(=O)c2sc(S(N)(=O)=O)cc21 [Compound I, (S,S)-(-)-5,6-dihydro-4-ethylamino-6-methyl-4H-thieno[2,3b]thiopyran-2-sulfonamide-7,7-dioxide]
  effect over the effect of timolol alone (percent change in IOP on Day 8 from prestudy): 13%-21%
